Converted amounts (≈) assume the structure as drawn. Bounds are passed on as bounds.

The subject of this test is L1210. In words: Cytotoxicity against mouse L1210 cells. Type of test: functional, cell-based.
`CC(=O)C1=C(CCC2=CCOC2=O)[C@@]2(C)CCCC(C)(C)[C@@H]2C1` [CHAPECODERIN C]: the concentration for half-maximal inhibition (IC50) (as a rule, the concentration that inhibits the measured activity by half) came out at 6 µg/mL (≈ 19 µM).

For the compound `CC(=O)[C@@H]1C[C@H]2C(C)(C)CCC[C@]2(C)[C@@]1(O)CCC1=CCOC1=O` [CHAPECODERIN B], the IC50 was 7.2 µg/mL (≈ 21.5 µM).

As to `CC(=O)CC[C@H]1C(C)(C)CCC[C@]1(C)C(=O)CCC1=CCOC1=O` [CHAPECODERIN A], the IC50 was over 10 µg/mL.
